How the values were obtained:
[1] = target: 5-hydroxytryptamine receptor 4 (Cavia porcellus, UniProt O70528); assay type: cell membranes, Dunkin-Hartley, Striatum, Membrane; note: in other assays of this panel Not Active means under 50% inhibition at 10 µM
[2] = DRUGMATRIX: Sigma2 radioligand binding (ligand: [3H] Ifenprodil); assay type: cell membranes, Rattus norvegicus, Wistar, Brain, Membrane; conditions: Not Active = under 50% inhibition at 10 µM
[3] = target: T1, Vasoactive intestinal polypeptide receptor 1 (Homo sapiens, UniProt P32241); assay type: cell membranes, Membrane; conditions: ht-29; note: in other assays of this panel Not Active means under 50% inhibition at 10 µM
T1 sequence (P32241 whole entry): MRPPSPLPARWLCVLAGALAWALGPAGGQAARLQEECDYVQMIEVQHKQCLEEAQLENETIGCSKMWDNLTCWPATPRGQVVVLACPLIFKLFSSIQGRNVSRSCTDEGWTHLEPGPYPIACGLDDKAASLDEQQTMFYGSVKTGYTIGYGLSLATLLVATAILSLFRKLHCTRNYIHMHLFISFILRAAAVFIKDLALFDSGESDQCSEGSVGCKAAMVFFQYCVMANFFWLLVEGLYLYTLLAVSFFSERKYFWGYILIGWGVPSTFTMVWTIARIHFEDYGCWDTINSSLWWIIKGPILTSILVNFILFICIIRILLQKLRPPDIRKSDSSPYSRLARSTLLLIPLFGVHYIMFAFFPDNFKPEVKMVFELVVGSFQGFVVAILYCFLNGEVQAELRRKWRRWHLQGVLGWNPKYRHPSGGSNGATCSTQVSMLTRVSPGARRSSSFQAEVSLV

Mu-type opioid receptor = Mu-type opioid receptor (Homo sapiens, UniProt P35372); experiment: DRUGMATRIX: Opiate mu (OP3, MOP) radioligand binding (ligand: [3H] Diprenorphine); assay type: cell membranes, CHO-K1, Membrane; conditions: cho-k1; Not Active = under 50% inhibition at 10 µM
[4] = target: Epidermal growth factor receptor (Homo sapiens, UniProt P00533); experiment: DRUGMATRIX: Protein Tyrosine Kinase, EGF Receptor enzyme inhibition (substrate: Poly(Glu:Tyr)); assay type: cell-based, Insect cells; conditions: insect cells; Not Active = under 50% inhibition at 10 µM
Cytochrome P450 3A4 = Cytochrome P450 3A4 (Homo sapiens, UniProt P08684); conditions: bti-tn-5b1-4; note: in other assays of this panel Not Active means under 50% inhibition at 10 µM
Cytochrome P450 3A4, sequence (P08684 whole entry): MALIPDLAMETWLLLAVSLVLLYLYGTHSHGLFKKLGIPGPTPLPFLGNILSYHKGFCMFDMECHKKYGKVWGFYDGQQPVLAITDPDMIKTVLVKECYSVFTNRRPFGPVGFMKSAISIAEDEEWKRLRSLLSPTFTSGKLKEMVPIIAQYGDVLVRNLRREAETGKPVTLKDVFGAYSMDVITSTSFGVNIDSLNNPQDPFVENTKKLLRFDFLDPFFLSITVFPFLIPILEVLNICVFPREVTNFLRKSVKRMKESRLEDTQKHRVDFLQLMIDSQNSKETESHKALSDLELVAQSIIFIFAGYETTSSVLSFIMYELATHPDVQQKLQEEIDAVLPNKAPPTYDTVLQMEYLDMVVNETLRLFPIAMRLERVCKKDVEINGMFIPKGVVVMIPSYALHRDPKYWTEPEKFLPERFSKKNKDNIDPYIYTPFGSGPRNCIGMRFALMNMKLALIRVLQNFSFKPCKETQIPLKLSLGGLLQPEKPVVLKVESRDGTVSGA

5-hydroxytryptamine receptor 4, sequence (O70528 whole entry): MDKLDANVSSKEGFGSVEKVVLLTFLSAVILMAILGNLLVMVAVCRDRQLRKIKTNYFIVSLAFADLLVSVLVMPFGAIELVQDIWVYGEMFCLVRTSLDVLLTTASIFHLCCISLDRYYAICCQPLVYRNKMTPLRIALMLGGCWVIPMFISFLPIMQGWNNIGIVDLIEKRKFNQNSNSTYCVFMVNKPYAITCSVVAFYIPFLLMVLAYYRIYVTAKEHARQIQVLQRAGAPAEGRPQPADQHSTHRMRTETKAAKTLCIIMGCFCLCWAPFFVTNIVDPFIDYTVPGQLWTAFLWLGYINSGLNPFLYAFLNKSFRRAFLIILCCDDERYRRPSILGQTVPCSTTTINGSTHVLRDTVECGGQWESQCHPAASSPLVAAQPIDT
Mu-type opioid receptor, sequence (P35372 whole entry): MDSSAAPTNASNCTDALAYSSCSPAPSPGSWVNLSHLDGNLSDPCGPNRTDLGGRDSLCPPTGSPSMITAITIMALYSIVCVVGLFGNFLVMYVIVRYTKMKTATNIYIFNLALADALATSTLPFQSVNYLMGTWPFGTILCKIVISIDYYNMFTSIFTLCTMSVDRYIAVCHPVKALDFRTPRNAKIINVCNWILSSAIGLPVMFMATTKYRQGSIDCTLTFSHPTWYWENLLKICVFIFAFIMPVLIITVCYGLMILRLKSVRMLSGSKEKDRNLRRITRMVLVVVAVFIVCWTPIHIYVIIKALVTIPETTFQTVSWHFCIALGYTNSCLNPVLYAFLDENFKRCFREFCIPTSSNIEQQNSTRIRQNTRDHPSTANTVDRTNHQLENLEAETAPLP
Epidermal growth factor receptor, sequence (P00533 whole entry): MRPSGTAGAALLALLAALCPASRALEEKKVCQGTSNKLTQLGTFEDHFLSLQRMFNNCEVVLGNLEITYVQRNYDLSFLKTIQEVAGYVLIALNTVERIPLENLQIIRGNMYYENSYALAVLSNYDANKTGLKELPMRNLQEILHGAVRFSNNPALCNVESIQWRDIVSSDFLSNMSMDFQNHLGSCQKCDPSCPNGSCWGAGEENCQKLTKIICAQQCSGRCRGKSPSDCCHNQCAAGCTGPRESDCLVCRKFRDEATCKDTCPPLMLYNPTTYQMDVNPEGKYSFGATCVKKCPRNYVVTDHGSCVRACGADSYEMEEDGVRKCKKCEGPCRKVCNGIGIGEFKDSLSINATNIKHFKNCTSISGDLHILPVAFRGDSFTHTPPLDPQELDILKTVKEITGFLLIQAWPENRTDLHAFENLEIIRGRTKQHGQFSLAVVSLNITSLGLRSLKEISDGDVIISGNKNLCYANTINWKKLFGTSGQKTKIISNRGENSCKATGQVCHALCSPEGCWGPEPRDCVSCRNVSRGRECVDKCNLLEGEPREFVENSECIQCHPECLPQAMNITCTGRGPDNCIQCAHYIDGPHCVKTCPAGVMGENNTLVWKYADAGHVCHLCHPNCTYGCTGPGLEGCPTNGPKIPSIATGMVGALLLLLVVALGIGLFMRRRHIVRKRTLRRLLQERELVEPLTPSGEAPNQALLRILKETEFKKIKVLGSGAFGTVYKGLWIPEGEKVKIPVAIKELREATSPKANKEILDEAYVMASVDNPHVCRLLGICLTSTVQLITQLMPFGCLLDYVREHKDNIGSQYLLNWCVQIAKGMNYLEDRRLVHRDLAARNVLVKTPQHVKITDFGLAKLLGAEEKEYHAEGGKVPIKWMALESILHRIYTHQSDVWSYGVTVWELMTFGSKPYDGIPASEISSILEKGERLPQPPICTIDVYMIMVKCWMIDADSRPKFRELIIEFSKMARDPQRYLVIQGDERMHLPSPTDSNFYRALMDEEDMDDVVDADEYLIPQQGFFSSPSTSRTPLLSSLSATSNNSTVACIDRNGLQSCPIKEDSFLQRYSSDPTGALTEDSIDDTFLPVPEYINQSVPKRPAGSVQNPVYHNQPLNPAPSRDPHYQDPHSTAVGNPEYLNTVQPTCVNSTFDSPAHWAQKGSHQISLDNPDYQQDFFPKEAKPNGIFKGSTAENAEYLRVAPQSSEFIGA

CO/N=C(\C(=O)N[C@@H]1C(=O)N2C(C(=O)O)=C(COC(C)=O)CS[C@H]12)c1csc(N)n1 [CEFOTAXIME]
Not Active: IC50 [1] | IC50 [2] | Ki [2] | IC50 [3] | IC50 (Mu-type opioid receptor) | IC50 [4] | IC50 (Cytochrome P450 3A4) | Ki (Cytochrome P450 3A4)

CNC1=Nc2ccc(Cl)cc2C(c2ccccc2)=[N+]([O-])C1 [CHLORDIAZEPOXIDE]
Not Active: IC50 [1] | IC50 [2] | Ki [2] | IC50 [3] | IC50 (Mu-type opioid receptor) | IC50 [4] | IC50 (Cytochrome P450 3A4) | Ki (Cytochrome P450 3A4)

Cc1cc(O)cc(C)c1Cl [CHLOROXYLENOL]
Not Active: IC50 [1] | IC50 [2] | Ki [2] | IC50 [3] | IC50 (Mu-type opioid receptor) | IC50 [4] | IC50 (Cytochrome P450 3A4) | Ki (Cytochrome P450 3A4)

CCCNC(=O)NS(=O)(=O)c1ccc(Cl)cc1 [CHLORPROPAMIDE]
Not Active: IC50 [1] | IC50 [2] | Ki [2] | IC50 [3] | IC50 (Mu-type opioid receptor) | IC50 [4] | IC50 (Cytochrome P450 3A4) | Ki (Cytochrome P450 3A4)

NS(=O)(=O)c1cc(C2(O)NC(=O)c3ccccc32)ccc1Cl (stereo not given) [CHLORTHALIDONE]
Not Active: IC50 [1] | IC50 [2] | Ki [2] | IC50 [3] | IC50 (Mu-type opioid receptor) | IC50 [4] | IC50 (Cytochrome P450 3A4) | Ki (Cytochrome P450 3A4)

O=C(O)CC(O)(CC(=O)O)C(=O)O [CITRIC ACID]
Not Active: IC50 [1] | IC50 [2] | Ki [2] | IC50 [3] | IC50 (Mu-type opioid receptor) | IC50 [4] | IC50 (Cytochrome P450 3A4) | Ki (Cytochrome P450 3A4)

CC(C)NCC(O)c1ccccc1Cl (stereo not given) [CLORPRENALINE]
Not Active: IC50 [1] | IC50 [2] | Ki [2] | IC50 [3] | IC50 (Mu-type opioid receptor) | IC50 [4] | IC50 (Cytochrome P450 3A4) | Ki (Cytochrome P450 3A4)

CN1CCN(C(c2ccccc2)c2ccccc2)CC1 [CYCLIZINE]
Not Active: IC50 [1] | IC50 [2] | Ki [2] | IC50 [3] | IC50 (Mu-type opioid receptor) | IC50 [4] | IC50 (Cytochrome P450 3A4) | Ki (Cytochrome P450 3A4)

CN1C[C@@H]2C[C@H]1CN2c1cc2c(cc1F)c(=O)c(C(=O)O)cn2C1CC1 [DANOFLOXACIN]
Not Active: IC50 [1] | IC50 [2] | Ki [2] | IC50 [3] | IC50 (Mu-type opioid receptor) | IC50 [4] | IC50 (Cytochrome P450 3A4) | Ki (Cytochrome P450 3A4)

COc1cccc2c1C(=O)c1c(O)c3c(c(O)c1C2=O)C[C@@](O)(C(C)=O)C[C@@H]3O[C@H]1C[C@H](N)[C@H](O)[C@H](C)O1 [DAUNORUBICIN]
Not Active: IC50 [1] | IC50 [2] | Ki [2] | IC50 [3] | IC50 (Mu-type opioid receptor) | IC50 [4] | IC50 (Cytochrome P450 3A4) | Ki (Cytochrome P450 3A4)
